Experimental data reported in US20260167637A1, “NLRP3 INFLAMMASOME INHIBITOR AND USE THEREOF” (TransThera Sciences (Nanjing), Inc., priority 2022, published 2026).

Assays:
[1] = Stability in canine liver microsomes; type: in vitro ADME; settings: canine liver microsomes 0.5 mg protein/mL, 1 μM test substance, β-NADPH 1 mM, 37° C.; for microsomal CLint at 1 μM / half-life at 1 μM: dog; for half-life at 1 μM: read-out: Canine t1/2
In short: (§1)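 Incubations at 37 °C used canine or rat liver microsomes, phosphate buffer containing 3 mM MgCl2, NADPH (no-NADPH controls at 0 and 60 min), and compound from a 10 μM working solution.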

[2] = Stability in rat liver microsomes; type: in vitro ADME; settings: rat liver microsomes 0.5 mg protein/mL, 1 μM test substance, β-NADPH 1 mM, 37° C.; for half-life at 1 μM: read-out: Rat t1/2
In short: as §1

THP-1 cell NLRP3 = target: T1, THP-1 cell NLRP3 (Homo sapiens, UniProt Q96P20); assay: Inhibitory activity against cell NLRP3 inflammasomes in THP-1 cells (LPS + nigericin, ELISA of supernatant); type: cell-based; settings: PMA-differentiated THP-1 cells, LPS 500 ng/mL 3 h, compound 1 h, nigericin 30 min; human IL-10 (so in the source) in supernatant by ELISA
T1 construct: endogenous in cells; host or cells: THP-1 cells, PMA-differentiated, stimulated with LPS and nigericin
T1 sequence (Q96P20 whole entry): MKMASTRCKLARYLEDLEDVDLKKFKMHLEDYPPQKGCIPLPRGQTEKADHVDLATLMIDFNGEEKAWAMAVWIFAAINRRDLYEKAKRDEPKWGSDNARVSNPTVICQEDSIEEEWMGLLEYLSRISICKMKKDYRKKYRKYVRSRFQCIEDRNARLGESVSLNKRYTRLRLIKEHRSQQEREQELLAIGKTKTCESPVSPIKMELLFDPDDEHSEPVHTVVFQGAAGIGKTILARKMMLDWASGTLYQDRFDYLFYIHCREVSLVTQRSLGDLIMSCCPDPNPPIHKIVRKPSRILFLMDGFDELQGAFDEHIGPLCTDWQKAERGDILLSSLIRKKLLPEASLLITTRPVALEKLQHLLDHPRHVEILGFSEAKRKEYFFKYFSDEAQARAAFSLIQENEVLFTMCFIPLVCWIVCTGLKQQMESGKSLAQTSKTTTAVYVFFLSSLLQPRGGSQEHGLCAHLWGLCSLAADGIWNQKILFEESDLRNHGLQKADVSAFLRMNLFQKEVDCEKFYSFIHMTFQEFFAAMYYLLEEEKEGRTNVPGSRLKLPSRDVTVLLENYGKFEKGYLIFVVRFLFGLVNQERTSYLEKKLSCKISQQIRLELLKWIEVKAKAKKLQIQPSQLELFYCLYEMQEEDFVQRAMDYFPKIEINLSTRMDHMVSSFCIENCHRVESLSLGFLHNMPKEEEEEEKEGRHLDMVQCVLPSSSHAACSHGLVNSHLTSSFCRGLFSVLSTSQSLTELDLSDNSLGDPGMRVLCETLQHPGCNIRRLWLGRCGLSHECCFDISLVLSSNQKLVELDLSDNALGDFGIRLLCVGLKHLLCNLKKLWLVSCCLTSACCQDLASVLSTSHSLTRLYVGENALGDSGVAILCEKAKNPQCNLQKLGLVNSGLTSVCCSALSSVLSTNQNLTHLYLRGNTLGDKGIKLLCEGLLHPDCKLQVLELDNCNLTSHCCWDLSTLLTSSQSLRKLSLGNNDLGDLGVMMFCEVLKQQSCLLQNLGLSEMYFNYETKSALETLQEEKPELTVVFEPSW
In short: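 PMA-differentiated (10 ng/mL, 16 h) THP-1 cells primed with 500 ng/mL LPS for 3 h in serum-free medium, then compound for 1 h (DMSO stock diluted 1:1000). Nigericin added for 30 min at 37 °C; IL-1β (printed as IL-10) in supernatant measured by ELISA.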

Row | SMILES | Canine t1/2 [1] | Rat t1/2 [2] | IC50 (THP-1 cell NLRP3) [nM] | microsomal CLint at 1 μM [1] [µL/min/mg] | half-life at 1 μM [1] [h] | microsomal CLint at 1 μM [2] [µL/min/mg] | half-life at 1 μM [2] [h]
1 | C#Cc1ccc(-c2nnc(N[C@@H]3CCCN(C)C3)c(=O)n2C)c(O)c1 [Compound 23, (R)-3-(4-ethynyl-2-hydoxyphenyl)-4-methyl-6-((1-methylpiperidin-3-yl)amino)-1,2,4-triazin-5(4H)-one] | →∞ | →∞ | 2.4 | – | – | – | –
2 | C#Cc1ccc(-c2nnc(N[C@@H]3CCCN(CCO)C3)cc2C2CC2)c(O)c1 [Compound 45, (R)-2-(4-Cyclopropyl-6-((1-(2-hydroxyethyl)piperidin-3-yl)amino)pyridazin-3-yl)-5-ethynylphenol] | – | – | 0.7 | 1.4 | 16.5 | 6.8 | 3.4
3 | C#Cc1ccc(-c2nnc(N[C@@H]3CCCN(C)C3)cc2C(C)C)c(O)c1 [Compound 81, (R)-5-ethynyl-2-(4-isopropyl-6-((1-methylpiperidin-3-yl)amino)pyridazin-3-yl)phenol] | – | – | 1.1 | 5 | 4.62 | 3 | 7.7
4 | C#Cc1ccc(-c2nnc(N[C@@H]3CCCN(C)C3)c(C#N)c2C)c(O)c1 [Compound 103, (R)-6-(4-ethynyl-2-hydroxyphenyl)-5-methyl-3-((1-methylpiperidin-3-yl)amino)pyridazine-4-carbonitrile] | – | – | 0.6 | 8.4 | 2.75 | 8.2 | 2.82
